The source of these data is patent US20090281054A1, “COMPOSITIONS AND METHODS COMPRISING CAPURAMYCIN ANALOGUES” (priority 2008, published 2009).

The test system of one data set is MTB H37Rv. Put plainly: MIC by broth microdilution. Particulars: Mycobacterium tuberculosis. In kind it is cell-based. The method, then:
(§1) The SQ997 amino acid derivatives shown in Table 2 were tested for in vitro activity against MTB, cytotoxicity for uninfected J774 cells to determine IC50, and for intracellular activity in the macrophage assay (Table 15). […] Cell viability remained similar to SQ997, or slightly better as cell morphologic changes were reduced.
For orientation: In broth dilution the organism is exposed to a series of concentrations in liquid medium.

The nature of another data set: in vitro. The format is cell-based. The conditions noted are these: mouse. On the procedure: as §1
The test system of data set [1] is M. smegmatis (MSMG; MC2155). The experiment in a line: MIC by microdilution method in 7H9 broth. In kind it is cell-based. Particulars: Mycolicibacterium smegmatis, MC2155|MC^2155; MSMG MC^2155; 72 hr; read-out: MIC.
For the next data set, the system named is MAC. The experiment in a line: Synergy by checkerboard titration (microdilution). The format is cell-based, M. avium complex. The conditions noted are these: for MIC Combination: combination SQ641 + EMB; for MIC: Mycobacterium avium, drug alone.
The next data set relates to M. avium complex (MAC). The experiment in a line: MIC by microdilution method in 7H9 broth. The format is cell-based. The conditions noted are these: Mycobacterium avium.
The test system of data set [2] is M. kansaii (MKN; ATCC12478 & 35775). The experiment in a line: MIC by microdilution method in 7H9 broth. The format is cell-based, M. kansasii. Particulars: Mycobacterium kansasii, read-out: MIC.
Data set [3] deals with M. abscessus (MAB; ATCC 700869). Put plainly: MIC by microdilution method in 7H9 broth. In kind it is cell-based. The conditions noted are these: Mycobacteroides abscessus, ATCC700869; MAB 700869; read-out: MIC.
Data set [4] concerns MTB-pSMT1 luciferase reporter strain. The experiment in a line: Activity against slowly replicating (hypoxic) MTB. The conditions noted are these: Mycobacterium tuberculosis. In kind it is cell-based.
In another data set the test system is M. smegmatis. The experiment in a line: Synergy by checkerboard titration (microdilution). In kind it is cell-based. Particulars: M. smegmatis; for MIC: Mycolicibacterium smegmatis, drug alone.
Another data set concerns M. abscessus. Put plainly: Synergy by checkerboard titration (microdilution). In kind it is cell-based.
Another data set deals with MTB in J774 cells. The experiment in a line: Intracellular activity of amino acid conjugates. The format is cell-based, Mycobacterium tuberculosis. The conditions noted are these: day 0 RLU 775, Control day 7 31700. The method, then: The amino acid conjugates were tested at concentrations of 4 mg/mL and 8 mg/mL compared with a control and isoniazid (INH).
The intracellular activity against MTB by capuramycin amino acid derivatives was tested. Cells J774 were infected with MTB and treated for 7 days with the amino acid derivative. The mean Relative Light Unites (RLU), an estimation of bacterial viability, was measured as described in Snewin et al., Infect. Immun., 1999, 67(9), 4586-4593).

A further data set concerns MTB in macrophages. In kind it is cell-based, Mycobacterium tuberculosis.
Another data set relates to MTB. In kind it is in vivo, mouse. Particulars: IP, 250 mg/kg, 2 weeks treatment.
Where [5] appears, read: ATCC 12478 / ATCC 35775, MKN ATCC35775.

In brackets after ≈: the same amount, converted by molar mass. Several values for one entry are separate records, joined by “and”; a condition that tells them apart may be missing. Identical values can stand only once. Like-named read-outs stand apart in the source and are kept apart here.

In the case of `CO[C@H]1[C@@H](OC(=O)CCCCCCCN)[C@H](N2C=CC(=O)NC2)O[C@@H]1[C@@H](OC1OC(C(=O)N[C@H]2CCC[C@@H](C)NC2=O)=C[C@H](O)[C@@H]1O)C(N)=O` (stereo partly shown) [997-aminooctanoic acid], the lowest concentration to inhibit growth with MTB H37Rv (MIC) was 8 µg/mL (≈ 11.3 µM). In addition, the 50% inhibitory concentration (IC50) – broadly, the point on the concentration scale where inhibition reaches its midpoint – in “in vitro” is above 32 µg/mL.
The corresponding values for `CO[C@H]1[C@@H](OC(=O)CCCCCCCCCCN)[C@H](N2C=CC(=O)NC2)O[C@@H]1[C@@H](OC1OC(C(=O)N[C@H]2CCC[C@@H](C)NC2=O)=C[C@H](O)[C@@H]1O)C(N)=O` (stereo partly shown) [997-aminoundecanoic acid] are 2 µg/mL (≈ 2.66 µM) and 32 µg/mL (≈ 42.5 µM).
The corresponding values for `CO[C@H]1[C@@H](OC(=O)c2ccncc2)[C@H](N2C=CC(=O)NC2)O[C@@H]1[C@@H](OC1OC(C(=O)N[C@H]2CCC[C@@H](C)NC2=O)=C[C@H](O)[C@@H]1O)C(N)=O` (stereo partly shown) [997-isonicotinic acid] are 4 µg/mL (≈ 5.93 µM) and above 32 µg/mL.
The corresponding values for `CO[C@H]1[C@@H](OC(=O)C2CCNCC2)[C@H](N2C=CC(=O)NC2)O[C@@H]1[C@@H](OC1OC(C(=O)N[C@H]2CCC[C@@H](C)NC2=O)=C[C@H](O)[C@@H]1O)C(N)=O` (stereo partly shown) [997-isonipecotic acid] are 8 µg/mL (≈ 11.8 µM) and above 32 µg/mL.
Consider `CO[C@H]1[C@@H](OC(=O)[C@H](N)C(C)C)[C@H](N2C=CC(=O)NC2)O[C@@H]1[C@@H](OC1OC(C(=O)N[C@H]2CCC[C@@H](C)NC2=O)=C[C@H](O)[C@@H]1O)C(N)=O` (stereo partly drawn) [Compound 997-D-Val], for which 12.5 µg/mL (≈ 18.7 µM) was the least that counted as inhibitory against MTB H37Rv (MIC). Besides, the IC50 in the data set “in vitro” was above 32 µg/mL.
The corresponding values for `CO[C@H]1[C@@H](OC(=O)[C@@H](N)C(C)C)[C@H](N2C=CC(=O)NC2)O[C@@H]1[C@@H](OC1OC(C(=O)N[C@H]2CCC[C@@H](C)NC2=O)=C[C@H](O)[C@@H]1O)C(N)=O` (stereo partly drawn) [Compound 997-L-Val] are 12.5 µg/mL (≈ 18.7 µM) and above 32 µg/mL.
`CC[C@@H](CO)NCCN[C@@H](CC)CO` [EMB, ethambutol, reference compound]: the MIC (as a rule, the lowest concentration found to suppress growth) in data set [1] is 0.5 µg/mL (≈ 2.45 µM); with MAC (MAC A5), 1 µg/mL; in the data set on MAC (MAC JSH1), 32 µg/mL; in the data set with MAC (MAC NIH C1-1), 8 µg/mL; with M. avium complex (MAC) (336 h, MAC isolates, 2 wk, read-out: MIC (range)) it was 0.5 to 32 µg/mL (≈ 2.45 to 157 µM); in the data set with M. avium complex (MAC) (MAC strain 100, read-out: MIC) it was 4 µg/mL (≈ 19.6 µM). Also, the minimum inhibitory concentration (MIC) was determined as 1 µg/mL (≈ 4.89 µM) with M. avium complex (MAC) (MAC strain 101, read-out: MIC); 2 µg/mL (≈ 9.79 µM) in the data set with M. avium complex (MAC) (MAC strain 104, read-out: MIC); 0.5 µg/mL (≈ 2.45 µM) in the data set on M. avium complex (MAC) (MAC strain 109, read-out: MIC); 1 µg/mL (≈ 4.89 µM) with M. avium complex (MAC) (MAC strain A5, read-out: MIC); 16 µg/mL (≈ 78.3 µM) in the data set on M. avium complex (MAC) (MAC strain JSH1, read-out: MIC); 4 µg/mL (≈ 19.6 µM) with M. avium complex (MAC) (MAC strain NIH C1-1, read-out: MIC). For the same compound, the MIC with M. avium complex (MAC) (MAC strain NIH C1-2, read-out: MIC) is 2 µg/mL (≈ 9.79 µM); in the data set on M. avium complex (MAC) (MAC strain NIH C1-3, read-out: MIC), 32 µg/mL (≈ 157 µM); in the data set with M. avium complex (MAC) (MAC strain NIH C1-4, read-out: MIC), 2 µg/mL (≈ 9.79 µM); in data set [2] (setting [5]), 1 µg/mL (≈ 4.89 µM); in data set [2] (MKN ATCC12478), 2 µg/mL (≈ 9.79 µM); in data set [3], above 32 µg/mL. The MIC in [4] is 2 µg/mL (≈ 9.79 µM); in data set [4] (Hypoxic, […]), 32 µg/mL (≈ 157 µM); in the data set on M. smegmatis it was 0.5 µg/mL. The “MIC Combination” value with MAC (MAC A5) is 0.062 µg/mL; in the data set on MAC (MAC JSH1), 8.0 µg/mL; with MAC (MAC NIH C1-1), 2.0 µg/mL; in the data set on M. smegmatis (combination SQ641 + EMB) it was 0.12 µg/mL. Also, the MIC90 (usually the lowest concentration that inhibits either 90% of growth or 90% of the strains tested, depending on the study) in the data set with M. avium complex (MAC) (MAC isolates, value in square brackets, read-out: MIC90) is 16 µg/mL (≈ 78.3 µM).
With `[H]/N=C(/N)N[C@H]1[C@H](O)[C@@H](O)[C@H](O[C@@H]2O[C@@H](C)[C@](O)(C=O)[C@H]2O[C@@H]2O[C@@H](CO)[C@H](O)[C@@H](O)[C@@H]2NC)[C@@H](N/C(N)=N\[H])[C@@H]1O` [SM, streptomycin, reference compound], the MIC in data set [1] is 0.5 µg/mL (≈ 0.86 µM); in data set [2] (setting [5]), 2 µg/mL (≈ 3.44 µM); in data set [2] (MKN ATCC12478) it was above 32 µg/mL; in data set [3] it was 8 µg/mL (≈ 13.8 µM); in the data set on M. abscessus (Mycobacteroides abscessus, drug alone) it was 8 µg/mL; in data set [4], 0.25 µg/mL (≈ 0.43 µM). In addition, the MIC in [4] (Hypoxic, […]) came out at 1 µg/mL (≈ 1.72 µM); with M. smegmatis it was 0.5 µg/mL. Further, the “MIC Combination” value with M. abscessus (combination SQ641 + SM) stood at 2.0 µg/mL; in the data set with M. smegmatis (combination SQ641 + SM), 0.25 µg/mL.
Turning to `CCCCCCCCCC(=O)O[C@@H]1[C@H](OC)[C@@H]([C@@H](OC2OC(C(=O)N[C@H]3CCC[C@@H](C)NC3=O)=C[C@H](OC(=O)CCOCCOCCOCCOCCN)[C@@H]2OC(=O)CCOCCOCCOCCOCCN)C(N)=O)O[C@H]1n1ccc(=O)[nH]c1=O` (stereo partly shown) [SQ641-2topdec], the “Mean RLU on day 7” value came to 4354 RLU in the data set with MTB in J774 cells (4 μg/ml) and 2903 RLU in the data set with MTB in J774 cells (8 μg/ml).
The corresponding values for `CCCCCCCCCC(=O)O[C@@H]1[C@H](OC)[C@@H]([C@@H](OC2OC(C(=O)N[C@H]3CCC[C@@H](C)NC3=O)=C[C@H](OC(=O)CCCCCCCCCCN)[C@@H]2O)C(N)=O)O[C@H]1n1ccc(=O)[nH]c1=O` (stereo partly shown) [SQ641-aua] are 3163 RLU and 372 RLU.
In the case of `CCCCCCCCCC(=O)O[C@@H]1[C@H](OC)[C@@H]([C@@H](OC2OC(C(=O)N[C@H]3CCC[C@@H](C)NC3=O)=C[C@H](OC(=O)CCOCCOCCOCCOCCN)[C@@H]2O)C(N)=O)O[C@H]1n1ccc(=O)[nH]c1=O` (stereo partly shown) [SQ641-topdec], the results for the “Mean RLU on day 7” value in the data set with MTB in J774 cells (4 μg/ml) and in the data set with MTB in J774 cells (8 μg/ml) were 3368 RLU and 2143 RLU, respectively.
For the compound “D-alpha-tocopheryl poly(ethylene glycol) 1000 succinate [TPGS]”, in the data set on MTB in macrophages, the “Effect of TPGS alone on MTB growth in macrophages” value was “increased MTB growth”; the “Mean RLU on day 7” value was 13903 RLU and 14595 RLU and 13942 RLU. Moreover, in the data set with MTB (Control 3.8 ± 1.9 × 10^8), the “Lung CFU ± SD” value is recorded as 3.0 ± 1.3 × 10^8 CFU. Moreover, in the data set with MTB (Control 8.58), the “Lung Log CFU” value came to 8.48 Log CFU.
